Experiments:
[1] = tested on: Japanese patients with solid tumors; format: in vivo, human
[2] = Plasma and urine pharmacokinetics of ASP3026; format: in vivo, human; details: for Tmax: human, plasma, oral
solid tumors = assay: Antitumor activity, overall response by RECIST v1.1; format: in vivo, human; details: for Partial response rate: across all treatment cycles
[3] = tested on: advanced solid malignancies; details: US study, patients with ALK-positive tumors, especially NSCLC; cited from earlier work
[4] = Japanese patients, oral once daily

## COc1cc(N2CCC(N3CCN(C)CC3)CC2)ccc1Nc1ncnc(Nc2ccccc2S(=O)(=O)C(C)C)n1 [ASP3026]
[1]; 325 mg daily, Cycle 1, six patients evaluated
  Patients with dose-limiting toxicity (DLT): Three
[1]; [4]
  Maximum tolerated dose (MTD): 200 mg
  Recommended phase II dose (RP2D): 200 mg
[1]; all cohorts (1/29)
  Total incidence of Grade 4 TEAEs: 3.4%
  Total incidence of Grade 5 TEAEs: 3.4%
[1]; all cohorts (4/29)
  Patients reporting eye disorders: 13.8%
[1]; all cohorts (6/29)
  Total incidence of Grade 1 TEAEs: 20.7%
[1]; all cohorts (8/29)
  Total incidence of Grade 2 TEAEs: 27.6%
[1]; all cohorts (13/29)
  Total incidence of Grade 3 TEAEs: 44.8%
[1]; all cohorts (24/29)
  Overall incidence of drug-related AEs: 82.8%
[1]; all treatment groups (29/29)
  Incidence of TEAEs: 100%
[1]; daily dose from 25 mg to 200 mg, Cycle 1
  Dose-limiting toxicity (DLT): No DLT was observed
[2]; 25 mg to 325 mg, Day 1 and Day 28, escalation cohort
  Dose dependence of median Cmax and AUC24h: increased in a dose-dependent manner
[2]; Mean tmax across the dose groups, Day 1
  Tmax: 2.12 to 4.52 h
[2]; Mean tmax across the dose groups, Day 28
  Tmax: 2.48 to 3.75 h
[2]; Median tmax across the dose groups, Day 1
  Tmax: 1.97 to 3.97 h
[2]; Median tmax across the dose groups, Day 28
  Tmax: 2.48 to 3 h
[2]; once daily oral dosing
  Steady state achieved: ≤ 8 days
Solid tumors; Cycle 1, 200 mg daily, escalation (n = 3) and expansion (n = 6) cohorts
  Partial response: none of the patients
Solid tumors; Cycle 1, 200 mg daily, escalation cohort (n = 3)
  Patients with stable disease: three
Solid tumors; Cycle 1, 200 mg daily, expansion cohort (n = 6)
  Patients with stable disease: three
Solid tumors; 75-mg dose group (1/3)
  Partial response rate: 33.3%
Solid tumors; 125-mg dose group (1/4)
  Partial response rate: 25.0%
[3]
  Patients achieving partial response (PR): Half of the patients

Reference: paper PMC7937589 (Drugs in R&D, 2020)
